Here are results for 9 compounds from ChEMBL document CHEMBL1201862, “PubChem BioAssay data set” (2004).

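Results reflect a 48-hour exposure of cells in 96-well plates to compound at five concentrations. Here, GI50 denotes the concentration required for 50% inhibition of growth.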 The source made the active and inactive calls. Rule as the data show it: active = GI50 up to about 1.1 µM and inactive = higher. A value given as a limit tells only on which side of the number the result lay.

Among the test systems are SK-MEL-2; NCI-H23; SF-268; MDA-N; NCI-H522; OVCAR-3; MCF7; HL-60; OVCAR-5; KM12; HCT-15; SF-295; HCT-116; MDA-MB-435; DU-145; Malme-3M; RPMI-8226; M14; SNB-75; SR.
What all share (test): growth of human tumour cells (NCI), 48 h

Regarding `CC1S/C(=N/c2nnc(-c3ccccc3)o2)NC1=O` (stereo not drawn), the GI50 was 69.5 µM (inactive) in the assay with SK-MEL-2; 94.8 µM (inactive) in the assay with NCI-H23; 34.5 µM (inactive) in the assay with SF-268; 32.7 µM (inactive) in the assay with MDA-N; 28 µM (inactive) in the assay on NCI-H522; 18.5 µM (inactive) in the assay on OVCAR-3. Moreover, the GI50 in the assay with MCF7 is 44 µM (inactive); in the assay on HL-60, 36.7 µM (inactive); in the assay on OVCAR-5, > 100 µM (inactive); in the assay with KM12, 46.1 µM (inactive); with HCT-15, 30.4 µM; with SF-295, 18.3 µM (inactive). The GI50 is 17.7 µM (inactive) with HCT-116; 39.1 µM (inactive) in the assay with MDA-MB-435; 81.3 µM (inactive) with DU-145; 41.4 µM (inactive) in the assay on Malme-3M; 49 µM (inactive) in the assay on RPMI-8226; 21.5 µM (inactive) with M14.
Consider `O=C1OS2(OC(=O)c3cccc4cccc2c34)c2ccccc21` (stereo not drawn), for which the GI50 in the assay with SK-MEL-2, in the assay on NCI-H23, in the assay on SF-268, in the assay with MDA-N, in the assay with NCI-H522 and in the assay with OVCAR-3 was > 100 µM (inactive) throughout. The GI50 with MCF7 was > 100 µM (inactive); in the assay with HL-60, > 100 µM (inactive); with OVCAR-5 it was > 100 µM (inactive); in the assay with KM12, > 100 µM (inactive); with HCT-15, greater than 100 µM; in the assay on SF-295, > 100 µM (inactive). Besides, the GI50 in the assay with HCT-116, in the assay on MDA-MB-435, with DU-145, in the assay with Malme-3M, in the assay on RPMI-8226 and with M14 was > 100 µM (inactive) throughout.
Turning to `Cc1ccc(S(=O)(=O)NC(=O)NNc2ccc(F)cc2)cc1`, the GI50 is > 100 µM (inactive) with SK-MEL-2; > 10 µM (inactive) with NCI-H23; > 100 µM (inactive) in the assay with SF-268; > 100 µM (inactive) in the assay on MDA-N; > 100 µM (inactive) in the assay on NCI-H522; > 100 µM (inactive) in the assay with OVCAR-3. Besides, the GI50 is > 100 µM (inactive) in the assay on MCF7; > 100 µM (inactive) in the assay on HL-60; > 100 µM (inactive) in the assay on OVCAR-5; > 100 µM (inactive) in the assay on KM12; greater than 100 µM in the assay on HCT-15; > 100 µM (inactive) in the assay on SF-295. The GI50 in the assay on HCT-116 was > 100 µM (inactive); in the assay on MDA-MB-435, > 100 µM (inactive); in the assay on DU-145 it was > 100 µM (inactive); in the assay with Malme-3M it was > 100 µM (inactive); with RPMI-8226, > 27 µM (inactive); in the assay on M14, > 100 µM (inactive).
With `C=CCn1c2ccccc2[n+]2cc([N+](=O)[O-])ccc12`, the GI50 in the assay with SK-MEL-2 is 27.2 µM (inactive); with NCI-H23 it was 20 µM (inactive); in the assay on MDA-N, 23.9 µM (inactive); in the assay with NCI-H522, 16 µM (inactive); with OVCAR-3, 24.5 µM (inactive); in the assay with SNB-75, 33.1 µM (inactive). For the same compound, the GI50 is 26.3 µM (inactive) in the assay on MCF7; 17.3 µM (inactive) in the assay on HL-60; 74 µM (inactive) in the assay on OVCAR-5; 40.1 µM (inactive) in the assay on KM12; 34.5 µM in the assay on HCT-15; > 100 µM (inactive) in the assay on SF-295. The GI50 in the assay with HCT-116 is 27.2 µM (inactive); in the assay with MDA-MB-435, 26.4 µM (inactive); with DU-145, 50.9 µM (inactive); in the assay with Malme-3M, 15.8 µM (inactive); with M14 it was 36.3 µM (inactive).
As for `[N-]=[N+]=NCN1C(=O)C2C3C=CC(C2C1=O)C1C2C(=O)N(CN=[N+]=[N-])C(=O)C2C31` (stereo not drawn), the GI50 in the assay on SK-MEL-2, with NCI-H23, in the assay with SF-268, with MDA-N, in the assay with NCI-H522 and with OVCAR-3 was > 100 µM (inactive) throughout. In addition, the GI50 is > 100 µM (inactive) in the assay with MCF7; > 100 µM (inactive) in the assay with KM12; greater than 100 µM in the assay on HCT-15; 60 µM (inactive) in the assay with SF-295; > 100 µM (inactive) in the assay on HCT-116; > 100 µM (inactive) in the assay with MDA-MB-435. For the same compound, the GI50 in the assay with DU-145, in the assay with RPMI-8226 and with M14 was > 100 µM (inactive) in each case.
On to `OC1(c2ccc(-c3ccccc3)cc2)c2ccccc2C2=NCCN21` (stereo not drawn), for which the GI50 in the assay with SK-MEL-2 is 3.61 µM (inactive); in the assay with NCI-H23, 20.1 µM (inactive); with SF-268, 29.6 µM (inactive); in the assay with MDA-N, > 100 µM (inactive); with OVCAR-3 it was 19 µM (inactive); in the assay on SNB-75 it was 19.3 µM (inactive). The GI50 was 33.7 µM (inactive) in the assay with HL-60; 22.9 µM (inactive) with KM12; 39.9 µM in the assay on HCT-15; 52.2 µM (inactive) in the assay with SF-295; 30.3 µM (inactive) with HCT-116; 32.2 µM (inactive) with MDA-MB-435. Moreover, the figures for the GI50 with DU-145, with SR and in the assay on RPMI-8226 were > 100 µM (inactive), 33.8 µM (inactive) and 29 µM (inactive), respectively.
Turning to `O=c1oc2ccc3ccccc3c2cc1-c1nc2ccccc2s1`, the GI50 in the assay with SK-MEL-2, in the assay on NCI-H23, in the assay with SF-268, in the assay with MDA-N, in the assay on NCI-H522 and in the assay on OVCAR-3 was > 100 µM (inactive) in each case. Also, the GI50 is > 100 µM (inactive) in the assay with SNB-75; > 100 µM (inactive) with HL-60; > 100 µM (inactive) in the assay with OVCAR-5; > 100 µM (inactive) with KM12; greater than 100 µM with HCT-15; > 100 µM (inactive) in the assay with SF-295. Further, the GI50 with HCT-116, in the assay with MDA-MB-435, in the assay with DU-145, in the assay on Malme-3M and in the assay on M14 was > 100 µM (inactive) in each case.
For `O=[N+]([O-])c1ccc2nc3n(c2c1)C(c1c(F)cccc1F)SC3` (stereo not drawn), the GI50 with NCI-H23, in the assay on MDA-N, in the assay on OVCAR-3, in the assay on MCF7, with OVCAR-5 and with KM12 was > 100 µM (inactive) throughout. Besides, the GI50 in the assay on SF-295 is 89.5 µM (inactive); in the assay with HCT-116, > 100 µM (inactive); in the assay with DU-145, > 100 µM (inactive); in the assay with Malme-3M, > 100 µM (inactive); in the assay on SR, 92.3 µM (inactive); in the assay on RPMI-8226, > 10 µM (inactive).
`CC1(C)[C@@H]2C[C@H]1[C@@H](Cc1cccc(C[C@H]3c4cc(-c5ccccn5)ncc4[C@H]4C[C@@H]3C4(C)C)c1)c1cc(-c3ccccn3)ncc12`: the GI50 was > 100 µM (inactive) in the assay with SK-MEL-2; 4.9 µM (inactive) in the assay on NCI-H23; 1.97 µM (inactive) in the assay with SF-268; 6.22 µM (inactive) in the assay on MDA-N; 8.93 µM (inactive) in the assay on NCI-H522; > 30.5 µM (inactive) in the assay with OVCAR-3. Also, the GI50 in the assay with SNB-75 is > 22.8 µM (inactive); in the assay on MCF7, 4.92 µM (inactive); with HL-60, 1.29 µM (inactive); in the assay with OVCAR-5, > 72.4 µM (inactive); with KM12 it was 3.12 µM (inactive); in the assay on HCT-15 it was 8.24 µM. The GI50 in the assay with SF-295 is 0.69 µM (active); in the assay with HCT-116 it was 1.09 µM (active); with MDA-MB-435 it was 2.96 µM (inactive); in the assay on DU-145, 1.09 µM (active); in the assay with RPMI-8226, 1.47 µM (inactive); in the assay with M14, 2.76 µM (inactive).
